According to US10858364B2, “Imidazopyrazine inhibitors of Bruton's tyrosine kinase” (Acerta Pharma B.V., priority 2016, dated 2020):

Experiments:
anti-IgD-induced CD69 = test: Human whole blood anti-IgD-induced CD69 assay; assay type: cell-based; conditions: B-cell, CD19+ B cells, 18h anti-IgD, read-out: hWB: anti-IgD-induced CD69 EC50
Description: WB assay: Forty-five μL blood was diluted 1:1 in RPMI+1% FBS and incubated with test compound, as described above. Blood cells were stimulated with 10 μg/mL mouse anti-human anti-IgD antibody (BD Biosciences, final concentration in assay 10 μg/mL) and incubated for 18h. Cells were stained with CD69-FITC, CD86-PE, and CD19-BV421 (BD Biosciences) for 15 minutes at room temperature, followed by RBCs lysis with FACS Lysing Solution (BD Biosciences). Cells were washed 3 times with 1 mL/well PBS+0.5% BSA, followed by flow cytometric analyses. Median fluorescence intensity values for CD69 were obtained from the CD19+B lymphocyte gate using FCSExpress analyses software (De Novo Software). EC50 values were determined by curve fitting of the experimental results using Dotmatics.
The potency of BTK inhibitors in primary B cells can be assessed in assays that evaluate functional changes after BCR-activation in the presence of inhibitor. Inhibition of specific phosphorylated epitopes on signaling proteins and more distal measures of BCR activation such as increased expression of CD86 (B7-2) and CD69 on the cell surface can be measured by flow cytometry (see Report R2013003A). In this study, effects of M27 on CD69 expression were assessed.

BTK = BTK (Homo sapiens (Human), UniProt Q06187); test: BTK enzyme activity, IMAP assay; assay type: biochemical; conditions: 60 min pre-incubation, 5 μM ATP
BTK, sequence (Q06187 whole entry): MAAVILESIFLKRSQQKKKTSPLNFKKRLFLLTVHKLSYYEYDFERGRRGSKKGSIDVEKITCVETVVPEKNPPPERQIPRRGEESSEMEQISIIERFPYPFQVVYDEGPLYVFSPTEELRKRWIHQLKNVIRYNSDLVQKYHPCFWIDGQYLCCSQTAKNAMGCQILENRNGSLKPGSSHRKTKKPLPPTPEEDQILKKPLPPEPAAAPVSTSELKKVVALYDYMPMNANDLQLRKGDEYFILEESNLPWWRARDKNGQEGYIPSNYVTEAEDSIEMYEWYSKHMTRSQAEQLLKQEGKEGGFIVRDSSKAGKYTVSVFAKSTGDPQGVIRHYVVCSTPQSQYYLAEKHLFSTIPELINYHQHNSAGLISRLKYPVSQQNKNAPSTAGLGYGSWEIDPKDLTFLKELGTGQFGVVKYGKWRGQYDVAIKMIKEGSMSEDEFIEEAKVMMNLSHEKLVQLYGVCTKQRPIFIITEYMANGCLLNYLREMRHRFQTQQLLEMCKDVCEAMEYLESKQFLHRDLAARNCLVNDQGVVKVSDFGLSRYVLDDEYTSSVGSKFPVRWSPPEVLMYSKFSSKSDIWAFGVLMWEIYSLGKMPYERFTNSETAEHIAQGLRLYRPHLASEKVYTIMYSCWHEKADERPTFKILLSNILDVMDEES
Description: BTK enzyme activity is measured using the IMAP (immobilized metal ion affinity-based fluorescence polarization) assay as outlined below. BTK enzyme (His-BTK (Millipore catalog #14-552)), is diluted to 0.4 U/mL in KR buffer (10 mM Tris-HCl, 10 mM MgCl2, 0.01% Tween-20, 0.05% NaN3, 1 mM DTT, 2 mM MnCl2, pH 7.2). Serial dilutions log 10 from 2 mM to 63.2 nM of test compounds are made in 100% DMSO. The dilutions in DMSO are then diluted 50-fold in KR-buffer. Final compound concentration range in the assay ranged from 10 μM to 0.316 nM. The assay is performed as follows: 5 μL/well of test compound in KR buffer (final DMSO concentration in the assay is […]) is mixed with 5 µl/well of 0.4 U/mL BTK enzyme (final concentration in the assay is 0.1 U/mL). […] After 60 min incubation at room temperature in the dark the FP signal is read. Fluorescence at 535 nm is measured using parallel and perpendicular filters to determine differences in rotation due to binding of the phosphorylated substrate peptide to the beads. Values are calculated as percentage of the difference in readout (AmPi) of the controls with and without ATP. IC50 values are determined by curve fitting of the experimental results in Dotmatics.

TXK = TXK (Homo sapiens (Human), UniProt P42681); test: TXK Z'-LYTE kinase assay; assay type: biochemical; conditions: 1 h pre-incubation, Km ATP
TXK, sequence (P42681 whole entry): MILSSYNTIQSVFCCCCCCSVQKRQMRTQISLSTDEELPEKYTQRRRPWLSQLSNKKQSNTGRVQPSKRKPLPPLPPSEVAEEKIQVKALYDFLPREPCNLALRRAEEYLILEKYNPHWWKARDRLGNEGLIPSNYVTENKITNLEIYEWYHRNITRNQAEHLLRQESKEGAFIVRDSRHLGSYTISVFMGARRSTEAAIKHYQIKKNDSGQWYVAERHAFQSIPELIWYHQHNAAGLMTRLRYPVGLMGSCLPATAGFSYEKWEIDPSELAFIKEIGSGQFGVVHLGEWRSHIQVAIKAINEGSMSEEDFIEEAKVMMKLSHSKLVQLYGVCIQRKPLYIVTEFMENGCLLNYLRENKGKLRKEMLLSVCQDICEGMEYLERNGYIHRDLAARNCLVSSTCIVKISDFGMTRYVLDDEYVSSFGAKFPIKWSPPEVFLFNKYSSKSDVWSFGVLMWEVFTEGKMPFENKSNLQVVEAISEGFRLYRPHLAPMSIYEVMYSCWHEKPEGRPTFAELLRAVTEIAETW
Description: BMX, TXK, EGFR, ERBB2, ERBB4, JAK3, BLK kinase activity was measured using the Z′-LYTE assay at Thermo Fisher. A 10-point dose response (final concentration in assay ranged from 10 μM to 0.5 nM in 3-fold dilution per dilution step) was generated with 1 h incubation of the test compound with the kinase prior to initiation of the kinase reaction by the addition of ATP. ATP concentration in the assay was Km ATP for the different kinases. IC50 values are determined by curve fitting of the experimental results at Thermo Fisher.

ITK = ITK (Homo sapiens (Human), UniProt Q08881); test: ITK enzyme activity, IMAP assay; assay type: biochemical; conditions: 60 min pre-incubation, 5 μM ATP
ITK, sequence (Q08881 whole entry): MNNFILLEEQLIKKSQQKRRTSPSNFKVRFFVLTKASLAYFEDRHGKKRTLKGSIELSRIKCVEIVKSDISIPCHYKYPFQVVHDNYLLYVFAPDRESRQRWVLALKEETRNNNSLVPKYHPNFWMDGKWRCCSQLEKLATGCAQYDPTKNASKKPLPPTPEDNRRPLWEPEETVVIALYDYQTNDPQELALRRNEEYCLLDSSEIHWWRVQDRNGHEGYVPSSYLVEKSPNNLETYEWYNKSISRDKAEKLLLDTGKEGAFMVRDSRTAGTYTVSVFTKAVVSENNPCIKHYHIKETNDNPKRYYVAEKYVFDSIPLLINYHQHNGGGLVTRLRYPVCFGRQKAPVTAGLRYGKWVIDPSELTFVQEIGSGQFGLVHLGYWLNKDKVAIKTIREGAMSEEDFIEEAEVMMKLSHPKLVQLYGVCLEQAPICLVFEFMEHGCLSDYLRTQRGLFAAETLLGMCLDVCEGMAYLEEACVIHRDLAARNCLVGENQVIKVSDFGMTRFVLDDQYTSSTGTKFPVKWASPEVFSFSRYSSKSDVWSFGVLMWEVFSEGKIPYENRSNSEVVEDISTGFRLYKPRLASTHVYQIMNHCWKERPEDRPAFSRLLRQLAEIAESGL
Description: ITK enzyme activity is measured using the IMAP (immobilized metal ion affinity-based fluorescence polarization) assay as outlined below.
ITK enzyme (Millipore #14-660M) is diluted to 0.2 U/mL in KR buffer (10 mM Tris-HCl, 10 mM MgCl2, 0.01% Tween-20, 0.1% NaN3, 1 mM DTT, 2 mM MnCl2, pH 7.5)
Serial dilutions log 10 from 2 mM to 63.2 nM of test compounds are made in 100% DMSO. The dilutions in DMSO are then diluted 50-fold in KR-buffer. Final compound concentration range in the assay ranged from 10 μM to 0.316 nM.
The assay is performed as follows: 5 μL/well of test compound in KR buffer (final DMSO concentration in the assay is 1%) is mixed with 5 μL/well of 0.2 U/mL ITK enzyme (final concentration in the assay is 0.05 U/mL (8.4 nM)). Test compounds and ITK enzyme are pre-incubated 60 minutes at room temperature, before adding 5 μL/well of 200 nM Fluorescin labeled substrate peptide (Blk/Lyntide substrate # R8124, Molecular Devices) in KR-buffer. Final peptide substrate concentration in assay is 50 nM. The kinase assay is started by adding 5 μL/well of 20 μM ATP in KR-buffer (final ATP concentration is 5 μM ATP, Km ATP in ITK IMAP assay). […] IC50 values are determined by curve fitting of the experimental results in Dotmatics.

EC50 (anti-IgD-induced CD69) [nM]	IC50 (BTK) [nM]	IC50 (TXK) [nM]	IC50 (ITK) [µM]	SMILES
137 ± 36	9.3	59	> 10	CC#CC(=O)NCCCC(=O)c1nc(-c2ccc(C(=O)Nc3ccccn3)c(OC)c2)c2c(N)nccn12 [Formula (II), 4-(8-amino-3-(4-(but-2-ynamido)butanoyl)imidazo[1,5-a]pyrazin-1-yl)-2-methoxy-N-(pyridin-2-yl)benzamide]
64 ± 6	5 ± 1	567 ± 174	> 10	CC#CC(=O)NCCCC(=O)c1nc(-c2ccc(C(=O)Nc3ccccn3)cc2)c2c(N)nccn12 [Formula (I), 4-(8-amino-3-(4-(but-2-ynamido)butanoyl)imidazo[1,5-a]pyrazin-1-yl)-N-(pyridin-2-yl)benzamide]
